This passage reports GI50 and TGI results from PubChem BioAssay (NCI).

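Interpolation was linear, between the two tested concentrations surrounding the appropriate level; five concentrations were tested over 48 hours in 96-well plates. GI50: concentration for 50% inhibition of growth. TGI marks complete inhibition of growth.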

Some test systems named below: COLO 205 colon; HCT-15 colon; IGROV1 ovarian; NCI-H23 lung; SK-OV-3 ovarian; SN12C renal; TK-10 renal; U251 CNS.
Common to all, as to assay: growth of human tumour cells (NCI), 48 h

In the case of `COc1cccc2c1cc1c3c(cc4c(c32)OCO4)C(=O)N1`, the GI50 was 2.3 µM in the experiment with COLO 205 colon; 4.14 µM with HCT-15 colon; 4.26 µM in the experiment on IGROV1 ovarian; 3.45 µM in the experiment on NCI-H23 lung; 13.6 µM in the experiment with SK-OV-3 ovarian; 2.87 µM in the experiment on SN12C renal. Also, the GI50 was 2.27 µM with TK-10 renal and 5.78 µM in the experiment with U251 CNS. Besides, the TGI is 5.39 µM in the experiment with COLO 205 colon; more than 100 µM in the experiment with HCT-15 colon; 34.4 µM in the experiment on IGROV1 ovarian; 13.4 µM in the experiment with NCI-H23 lung; 48.9 µM in the experiment on SK-OV-3 ovarian; 19.6 µM with SN12C renal. For the same molecule, the TGI was determined as 6.27 µM in the experiment on TK-10 renal and 21.1 µM in the experiment with U251 CNS.
On to `C=CC(C)(O)CC/C=C(\CO)C(=O)OC1C(C)OC(O[C@](C)(C=C)CC/C=C(\CO)C(=O)O[C@H]2C[C@@]3(C(=O)OC4OC(CO)C(O)C(O)C4OC4OC(C)C(OC5OC(CO)C(O)C5O)C(OC5OC(CO)C(O)C(O)C5O)C4O)C(CC2(C)C)C2=CCC4[C@@]5(C)CC[C@H](OC6OC(COC7OC(C)C(O)C(O)C7OC7OCC(O)C(O)C7O)C(O)C(O)C6NC(C)=O)C(C)(C)C5CC[C@@]4(C)[C@]2(C)C[C@H]3O)C(O)C1O` (stereo partly specified), for which the GI50 in the experiment on COLO 205 colon was 0.168 µM; in the experiment with HCT-15 colon, 4.72 µM; in the experiment on IGROV1 ovarian, 2.96 µM; with NCI-H23 lung it was 2.01 µM; in the experiment with SK-OV-3 ovarian, 0.203 µM; in the experiment with SN12C renal, 0.0798 µM. Besides, the GI50 in the experiment on TK-10 renal is 0.097 µM; in the experiment with U251 CNS, 0.101 µM. Besides, the TGI amounted to 0.927 µM with COLO 205 colon; 10.6 µM in the experiment with HCT-15 colon; 9.63 µM in the experiment with IGROV1 ovarian; 7.49 µM in the experiment on NCI-H23 lung; 0.794 µM in the experiment with SK-OV-3 ovarian; 0.343 µM in the experiment with SN12C renal. Moreover, the TGI was determined as 0.237 µM with TK-10 renal and 0.45 µM with U251 CNS.
`O=C(C=C=Nc1ccccc1)C(=O)N=C=Cc1ccccc1`: the GI50 with COLO 205 colon was 1.89 µM; in the experiment with HCT-15 colon it was 1.42 µM; in the experiment with IGROV1 ovarian, 2.96 µM; with NCI-H23 lung, 4.55 µM; in the experiment with SK-OV-3 ovarian, 20.3 µM; in the experiment on SN12C renal it was 4.71 µM. The GI50 in the experiment on TK-10 renal was 2.52 µM; in the experiment with U251 CNS it was 5.27 µM. Further, the TGI in the experiment on COLO 205 colon came out at 3.87 µM; in the experiment on HCT-15 colon, 4.05 µM; in the experiment on IGROV1 ovarian, 12.3 µM; in the experiment on NCI-H23 lung, 19.5 µM; in the experiment on SK-OV-3 ovarian it was 68 µM; with SN12C renal, 19.4 µM. The TGI in the experiment on TK-10 renal was found to be 6.83 µM; in the experiment on U251 CNS it was 17.3 µM.
For H-QIYKKYRTWYRKAWKVLGKV-NH2, the GI50 is 4.3 µM with COLO 205 colon; 2.92 µM with HCT-15 colon; 3.06 µM with IGROV1 ovarian; 3.96 µM in the experiment with NCI-H23 lung; 11.3 µM in the experiment with SK-OV-3 ovarian; 3.56 µM in the experiment with SN12C renal. Also, the figures for the GI50 with TK-10 renal and with U251 CNS were 6.35 µM and 12 µM, respectively. The TGI in the experiment with COLO 205 colon worked out at 80.7 µM; in the experiment on HCT-15 colon, 17 µM; with IGROV1 ovarian it was 14.1 µM; in the experiment on NCI-H23 lung it was 30.1 µM; in the experiment with SK-OV-3 ovarian, 30.5 µM; with SN12C renal, 15 µM. Further, the TGI in the experiment with TK-10 renal is 29.8 µM; in the experiment with U251 CNS, more than 100 µM.
Turning to `O=C(/C=C/c1ccco1)c1ccc(Nc2nc(Nc3ccc(F)cc3)nc(Nc3ccc(F)cc3)n2)cc1`, the GI50 with COLO 205 colon is 7.04 µM; in the experiment with HCT-15 colon, 22.5 µM; with IGROV1 ovarian it was 10.7 µM; with NCI-H23 lung it was 16.4 µM; in the experiment with SK-OV-3 ovarian, 32 µM; in the experiment on SN12C renal it was 54.8 µM. Moreover, the values for the GI50 in the experiment with TK-10 renal and in the experiment on U251 CNS were 48.4 µM and 21.6 µM, respectively. The TGI with COLO 205 colon is 26.1 µM; in the experiment with HCT-15 colon, more than 100 µM; in the experiment with IGROV1 ovarian it was 29.6 µM; in the experiment with NCI-H23 lung it was 37 µM; with SK-OV-3 ovarian, more than 100 µM; in the experiment on SN12C renal, more than 100 µM. In addition, the TGI with TK-10 renal is more than 100 µM; in the experiment on U251 CNS it was 42.2 µM.
Turning to `COc1cc(/C=N/NC(=O)c2ccccc2Nc2cccc(C(F)(F)F)c2)cc(OC)c1OC`, the GI50 in the experiment with COLO 205 colon was 2.72 µM; with HCT-15 colon, 2.85 µM; in the experiment with IGROV1 ovarian, 4.19 µM; with NCI-H23 lung, 6.37 µM; with SK-OV-3 ovarian, 2.92 µM; with SN12C renal it was 5.94 µM. Further, the figures for the GI50 in the experiment with TK-10 renal and with U251 CNS were 2.36 µM and 2.28 µM, respectively. For the same molecule, the TGI came out at 9.87 µM with COLO 205 colon; 13.2 µM in the experiment with HCT-15 colon; 14.2 µM in the experiment on IGROV1 ovarian; 23.1 µM in the experiment with NCI-H23 lung; 8.44 µM in the experiment on SK-OV-3 ovarian; 15.4 µM with SN12C renal. The TGI in the experiment on TK-10 renal worked out at 8.74 µM; in the experiment on U251 CNS, 6.03 µM.
On to `C/C(=N/O)c1ccc(Nc2cc(-n3ccnc3)c3ccccc3n2)cc1`, for which the GI50 in the experiment on COLO 205 colon was 11.8 µM; in the experiment with HCT-15 colon, 14.3 µM; with IGROV1 ovarian, 15.1 µM; in the experiment on NCI-H23 lung, 42 µM; in the experiment with SK-OV-3 ovarian, more than 100 µM; in the experiment on SN12C renal, 39.5 µM. In addition, the GI50 with TK-10 renal is 16.4 µM; in the experiment on U251 CNS, 27.3 µM. Moreover, the TGI in the experiment on COLO 205 colon was more than 100 µM; in the experiment on HCT-15 colon, 37.3 µM; in the experiment with IGROV1 ovarian, 52.8 µM; with NCI-H23 lung, more than 100 µM; in the experiment with SK-OV-3 ovarian it was more than 100 µM; in the experiment on SN12C renal, more than 100 µM. The TGI in the experiment on TK-10 renal and with U251 CNS was more than 100 µM each time.
Turning to `NC(=O)c1ccc(N(C(N)=O)c2c(F)cccc2F)nc1-c1ccc(F)cc1F`, the GI50 in the experiment with COLO 205 colon, in the experiment with HCT-15 colon, in the experiment on IGROV1 ovarian, with NCI-H23 lung, in the experiment with SK-OV-3 ovarian and with SN12C renal was more than 100 µM in each case. Besides, the GI50 in the experiment on TK-10 renal and in the experiment with U251 CNS was more than 100 µM throughout. Besides, the TGI in the experiment on COLO 205 colon, in the experiment with HCT-15 colon, with IGROV1 ovarian, with NCI-H23 lung, with SK-OV-3 ovarian and in the experiment with SN12C renal was more than 100 µM in each case. Also, the TGI in the experiment on TK-10 renal and with U251 CNS was more than 100 µM each time.
On to `CCOC(=O)CC(NC(=O)c1ccc(N=NN(C)C)cc1)C(=O)OCC` (stereo unspecified), for which the TGI in the experiment on COLO 205 colon, with HCT-15 colon, with IGROV1 ovarian, in the experiment with NCI-H23 lung, with SK-OV-3 ovarian and with SN12C renal was more than 100 µM throughout. Also, the TGI with TK-10 renal and in the experiment on U251 CNS was more than 100 µM throughout.
